Patent publication US20080188449A1, “Treatment of Conditions Caused By Calcium Abnormalities” (priority 2004, published 2008)

Tested on: HeLa cells
Assay: [^3H]-triptolide competition binding in HeLa cells
Conditions: 1 or 10 μM competitor one hour before [^3H]-triptolide, HeLa cells
Protocol: To gain insight into triptolide's mechanism of action Applicants sought to determine its specific binding activity utilizing a system employing [^3H]-triptolide. In addition to competition with 1 μM or 10 μM unlabeled triptolide, Applicants also measured the binding affinities of triptolide analogs (FIG. 1A). These analogs have been previously described and differ structurally from triptolide in the hydrolysis of the 12,13 epoxide (2), and formation of the ketone at the C-14 hydroxyl (3) (FIG. 1A). […] The effective interaction of these analogs with a presumed triptolide binding entity led us to their use in subsequent experiments addressing the mode of triptolide's biological functions.
To address first the nature of triptolide binding within the cell, Applicants determined this interaction was reversible as [^3H]-triptolide labeling was out competed by subsequent addition of excess unlabeled triptolide (FIG. 2A). […] Although 25% of the total cellular counts (i.e., representing bound triptolide) were found in the cytosolic fraction, it is uncertain whether this is specific binding or simply that free triptolide had dissociated from its binding protein due to experimental manipulation during fractionation. Since the data thus far had only shown binding within whole cells, Applicants next determined if this triptolide binding protein could be further characterized and/or enriched by its association with chromatographic reagents. HeLa cells were once again labeled with [^3H]-triptolide and total cell lysates were then passed over the anion exchange resin DEAE. Batch elutions with increasing NaCl concentrations were used to disassociate interactions of variable charge. […] Importantly, Applicants also observed that [^3H]-triptolide would only bind to intact cells in culture but would not bind to any component of a total cellular lysate as assessed by interaction with the DEAE resin. Negative results for a triptolide binding interaction were also observed with DNA-cellulose and the cation exchange resin SPFF (sulphopropyl).
Labeling studies were performed by the addition of approximately 30 nM [^3H]-triptolide directly into the culture media for one hour at 37° C. For cold competition studies, 1 μM triptolide was incubated with the cells for one hour before or after the addition of [^3H]-triptolide. Triptolide analog studies followed a similar protocol where concentrations used for competition were either 1 or 10 μM added before [^3H]-triptolide. Medium was removed and cells were washed 3× in cold PBS. Total cell lysates were prepared (150 mM NaCl, 50 mM Tris-HCl pH 7.4, 1 mM EDTA, 1% Triton X-100, and Complete protease inhibitors (Roche)) and protein was quantitated before measuring the [^3H]-triptolide binding activity via liquid scintillation.

## CC(C)[C@]12O[C@H]1[C@@H]1O[C@]13[C@]1(O[C@H]1C[C@H]1C4=C(CC[C@@]13C)C(=O)OC4)[C@@H]2O [triptolide, Triptolide]
  displacement of [^3H]-triptolide binding: significantly competed
